Test results reported in US20100152434A1, “Protein Kinase-binding Nucleosides and Associated Methods” (priority 2007, published 2010).
Where two headings read alike, the source gives them in different places.

What was measured:
UO-31 [1] = test: cells; settings: Homo sapiens
UO-31 [2] = tested on: UO-31
A498 [3] = tested on: A498
RPMI-8226 [4] = tested on: RPMI-8226
NCI-H322M = test: cells; settings: Homo sapiens, NCI-H322M
CAKI-1 [5] = tested on: CAKI-1
A498 [6] = test: cells; settings: Homo sapiens
MCF7 = test: cells; settings: Homo sapiens
LOX IMVI [7] = test: cells; settings: Homo sapiens
HOP-62 [8] = settings: HOP-62
RPMI-8226 [9] = test: cells; settings: Homo sapiens
CAKI-1 [10] = test: cells; settings: Homo sapiens
SF-295 [11] = tested on: SF-295
HCT-116 = test: cells; settings: Homo sapiens
HOP-62 [12] = test: cells; settings: Homo sapiens
NCI-H460 = test: cells; settings: Homo sapiens
SF-268 [13] = tested on: SF-268
M14 [14] = tested on: M14
LOX IMVI [15] = tested on: LOX IMVI
SF-295 [16] = test: cells; settings: Homo sapiens
M14 [17] = test: cells; settings: Homo sapiens
SF-268 [18] = test: cells; settings: Homo sapiens

CNC(=O)NC[C@H]1O[C@@H](n2cnc3c(NC(=O)Nc4ccccc4)ncnc32)[C@H](O[Si](C)(C)C(C)(C)C)[C@@H]1CC(=O)N(C)OC [Compound 13, 2′-O-(tert-Butyldimethylsilyl)-3′,5′-dideoxy-3′-[(N-methoxy-N-methylcarboxamido)methyl]-5′-[(N-methylcarbamoyl)amino]-N^6-(N-phenylcarbamoyl)adenosine]
GI50 (UO-31 [1]; UO-31): 7.79 µM
CC50 (UO-31 [1]; UO-31, read-out: LC50): > 100 µM
TGI (UO-31 [2]): >1.00E−4 Molar
Percent Growth (UO-31 [2]; Log10 Concentration −4.0): 32%
Percent Growth (UO-31 [2]; Log10 Concentration −5.0): 46%
Percent Growth (UO-31 [2]; Log10 Concentration −6.0): 82%
Percent Growth (UO-31 [2]; Log10 Concentration −7.0): 89%
Percent Growth (UO-31 [2]; Log10 Concentration −8.0): 89%
TGI (A498 [3]): 4.03E−5 Molar
Percent Growth (A498 [3]; Log10 Concentration −4.0): −16%
Percent Growth (A498 [3]; Log10 Concentration −5.0): 24%
Percent Growth (A498 [3]; Log10 Concentration −6.0): 87%
Percent Growth (A498 [3]; Log10 Concentration −7.0): 96%
Percent Growth (A498 [3]; Log10 Concentration −8.0): 90%
TGI (RPMI-8226 [4]): 5.40E−6 Molar
Percent Growth (RPMI-8226 [4]; Log10 Concentration −4.0): −16%
Percent Growth (RPMI-8226 [4]; Log10 Concentration −5.0): −25%
Percent Growth (RPMI-8226 [4]; Log10 Concentration −6.0): 69%
Percent Growth (RPMI-8226 [4]; Log10 Concentration −7.0): 91%
Percent Growth (RPMI-8226 [4]; Log10 Concentration −8.0): 80%
GI50 (NCI-H322M): > 100 µM
CC50 (NCI-H322M; read-out: LC50): > 100 µM
TGI (CAKI-1 [5]): >1.00E−4 Molar
Percent Growth (CAKI-1 [5]; Log10 Concentration −4.0): 47%
Percent Growth (CAKI-1 [5]; Log10 Concentration −5.0): 57%
Percent Growth (CAKI-1 [5]; Log10 Concentration −6.0): 76%
Percent Growth (CAKI-1 [5]; Log10 Concentration −7.0): 72%
Percent Growth (CAKI-1 [5]; Log10 Concentration −8.0): 85%
GI50 (A498 [6]; A498): 3.87 µM
CC50 (A498 [6]; A498, read-out: LC50): > 100 µM
TGI (A549/ATCC): >1.00E−4 Molar
Percent Growth (A549/ATCC; Log10 Concentration −4.0): 27%
Percent Growth (A549/ATCC; Log10 Concentration −5.0): 49%
Percent Growth (A549/ATCC; Log10 Concentration −6.0): 97%
Percent Growth (A549/ATCC; Log10 Concentration −7.0): 100%
Percent Growth (A549/ATCC; Log10 Concentration −8.0): 97%
GI50 (MCF7; MCF7): 5.59 µM
CC50 (MCF7; MCF7, read-out: LC50): > 100 µM
GI50 (LOX IMVI [7]): 7.3 µM
CC50 (LOX IMVI [7]; read-out: LC50): > 100 µM
TGI (HOP-62 [8]): >1.00E−4 Molar
Percent Growth (HOP-62 [8]; Log10 Concentration −4.0): 28%
Percent Growth (HOP-62 [8]; Log10 Concentration −5.0): 64%
Percent Growth (HOP-62 [8]; Log10 Concentration −6.0): 86%
Percent Growth (HOP-62 [8]; Log10 Concentration −7.0): 88%
Percent Growth (HOP-62 [8]; Log10 Concentration −8.0): 92%
GI50 (RPMI-8226 [9]; RPMI-8226): 1580 nM
CC50 (RPMI-8226 [9]; RPMI-8226, read-out: LC50): > 100 µM
GI50 (CAKI-1 [10]; CAKI-1): 53.8 µM
CC50 (CAKI-1 [10]; CAKI-1, read-out: LC50): > 100 µM
TGI (SF-295 [11]): >1.00E−4 Molar
Percent Growth (SF-295 [11]; Log10 Concentration −4.0): 20%
Percent Growth (SF-295 [11]; Log10 Concentration −5.0): 48%
Percent Growth (SF-295 [11]; Log10 Concentration −6.0): 98%
Percent Growth (SF-295 [11]; Log10 Concentration −7.0): 93%
Percent Growth (SF-295 [11]; Log10 Concentration −8.0): 93%
TGI (DU-145): >1.00E−4 Molar
Percent Growth (DU-145; Log10 Concentration −4.0): 16%
Percent Growth (DU-145; Log10 Concentration −5.0): 60%
Percent Growth (DU-145; Log10 Concentration −6.0): 104%
Percent Growth (DU-145; Log10 Concentration −7.0): 112%
Percent Growth (DU-145; Log10 Concentration −8.0): 107%
GI50 (HCT-116; HCT-116): 4.2 µM
CC50 (HCT-116; HCT-116, read-out: LC50): > 100 µM
GI50 (HOP-62 [12]; HOP-62): 24.9 µM
CC50 (HOP-62 [12]; HOP-62, read-out: LC50): > 100 µM
GI50 (NCI-H460; NCI-H460): 7.49 µM
CC50 (NCI-H460; NCI-H460, read-out: LC50): > 100 µM
TGI (SF-268 [13]): >1.00E−4 Molar
Percent Growth (SF-268 [13]; Log10 Concentration −4.0): 20%
Percent Growth (SF-268 [13]; Log10 Concentration −5.0): 46%
Percent Growth (SF-268 [13]; Log10 Concentration −6.0): 91%
Percent Growth (SF-268 [13]; Log10 Concentration −7.0): 105%
Percent Growth (SF-268 [13]; Log10 Concentration −8.0): 98%
TGI (M14 [14]): >1.00E−4 Molar
Percent Growth (M14 [14]; Log10 Concentration −4.0): 18%
Percent Growth (M14 [14]; Log10 Concentration −5.0): 57%
Percent Growth (M14 [14]; Log10 Concentration −6.0): 91%
Percent Growth (M14 [14]; Log10 Concentration −7.0): 98%
Percent Growth (M14 [14]; Log10 Concentration −8.0): 98%
TGI (SK-OV-3): >1.00E−4 Molar
Percent Growth (SK-OV-3; Log10 Concentration −4.0): 38%
Percent Growth (SK-OV-3; Log10 Concentration −5.0): 82%
Percent Growth (SK-OV-3; Log10 Concentration −6.0): 95%
Percent Growth (SK-OV-3; Log10 Concentration −7.0): 97%
Percent Growth (SK-OV-3; Log10 Concentration −8.0): 96%
TGI (LOX IMVI [15]): >1.00E−4 Molar
Percent Growth (LOX IMVI [15]; Log10 Concentration −4.0): 35%
Percent Growth (LOX IMVI [15]; Log10 Concentration −5.0): 43%
Percent Growth (LOX IMVI [15]; Log10 Concentration −6.0): 94%
Percent Growth (LOX IMVI [15]; Log10 Concentration −7.0): 96%
Percent Growth (LOX IMVI [15]; Log10 Concentration −8.0): 97%
GI50 (SF-295 [16]; SF-295): 9.09 µM
CC50 (SF-295 [16]; SF-295, read-out: LC50): > 100 µM
GI50 (M14 [17]; M14): 15.2 µM
CC50 (M14 [17]; M14, read-out: LC50): > 100 µM
TGI (KM12): >1.00E−4 Molar
Percent Growth (KM12; Log10 Concentration −4.0): 30%
Percent Growth (KM12; Log10 Concentration −5.0): 62%
Percent Growth (KM12; Log10 Concentration −6.0): 106%
Percent Growth (KM12; Log10 Concentration −7.0): 108%
Percent Growth (KM12; Log10 Concentration −8.0): 101%
GI50 (SF-268 [18]; SF-268): 8.29 µM
CC50 (SF-268 [18]; SF-268, read-out: LC50): > 100 µM
